Source: patent US6423352B1 (priority 1998, dated 2002)
Like-named read-outs stand apart in the source and are kept apart here.

Assays:
Format in all cases: in vivo
Phytophthora infestans [1] = conditions: for % diseased leaf area, solvent control: Example 12, late blight in tomato, untreated control 81; for % diseased leaf area, late blight tomato, 5 d: Example 17, none 81
[2] = tested on: Pseudoperonospora cubensis; test: downy mildew in cucumber: sprayed plants inoculated, disease recorded; conditions: Example 14; solvent conc. 1%; inoculation three hours after spray; none (control) 88
Description: (§1) To test the efficacy of these extracts and suspensions, experiments were performed in which plants were sprayed using a fine glass atomizer with either Inula extract or with pure solvent as a control for the Inula extracts, with either Inula extract and emulsifier or with an emulsifier solution as a control for the emulsified Inula extracts, and with either Inula suspension or with water or emulsifier solution as a control for the Inula suspensions. Treated and control plants were then inoculated with a crop-respective fungal pathogen. After an incubation period, the extent of the infection was measured. Unless otherwise stated, percentage protection from the disease due to the treatment with the Inula extract or suspension was calculated as:
(§2) % control of the disease=[1−(% infection and treated plants/% infection in control plants)]×100.
The crop plants and pathogens used for inoculation are described in the following list. […]
(§3) Disease records were visually estimated in the inoculated plants at 3-13 days after inoculation, depending on the crop and disease. Percentage leaf area occupied with disease symptoms or fungal colonies was recorded and given in the results section.

[3] = tested on: Erysiphe graminis tritici; test: powdery mildew in wheat: sprayed plants inoculated, diseased leaf area recorded; conditions: for % diseased leaf area, wheat powdery mildew, 10 d: Example 14, solvent conc. 1%, inoculation three hours after spray, none (control) 50; for % diseased leaf area, powdery mildew wheat, 8 d: Example 17, none 69
Description: as §1, §2
The crop plants and pathogens used for inoculation are described in the following list.
Inoculation with P. infestants, P. cubensis, P. tabacina, P. viticola, B. cinera and C. fulvum was done by spraying a spore suspension in distilled water onto the upper leaf surfaces of the treated (and the control) plants. Inoculated plants were kept in a dew chamber at 18-20° C. in the dark for 16-20 hours and then in a growth chamber at 20° C. with 12 hours photoperiod. Inoculation with E. graminis and S. fuliginea was done by blowing spores over the treated (and control) plants. Inoculated plants were then kept in a growth chamber as above.
as §3

Phytophthora infestans [4] = conditions: for % Protection, late blight in potato / Diseased leaf area, late blight in potato: Example 2; for Diseased leaf area, late blight in potato: recorded 4 days post inoculation, untreated control 98; for % diseased leaf area, late blight potato, 5 d: Example 17, none 100

tetraethylene
% diseased leaf area, Tomato late blight, 4 d (Phytophthora infestans [1]; in vivo): 63%
% diseased leaf area, cucumber downy mildew, 6 d [2]: 31%
% diseased leaf area, wheat powdery mildew, 10 d [3]: 50%

C1CNCCN1.O [piperazine hydrate]
% diseased leaf area, solvent control (Phytophthora infestans [1]; solvent alone 0.05M): 81%
% diseased leaf area, solvent control (Phytophthora infestans [1]; solvent alone 0.1M): 81%

C1CCNCC1 [piperidine]
% diseased leaf area, Tomato late blight, 4 d (Phytophthora infestans [1]; Example 14, solvent conc. 1%, inoculation three hours after spray, none (control) 88): 88%
% diseased leaf area, cucumber downy mildew, 6 d [2]: 94%
% diseased leaf area, wheat powdery mildew, 10 d [3]: 25%

N.O [NH4OH, ammonium hydroxide]
% Protection, late blight in potato (Phytophthora infestans [4]; NH4OH 1%): 0%
Diseased leaf area, late blight in potato (Phytophthora infestans [4]; NH4OH 1%): 100
% Protection, late blight in potato (Phytophthora infestans [4]; NH4OH 2%): 0%
Diseased leaf area, late blight in potato (Phytophthora infestans [4]; NH4OH 2%): 100
% Protection, late blight in potato (Phytophthora infestans [4]; NH4OH 4%): 0%
Diseased leaf area, late blight in potato (Phytophthora infestans [4]; NH4OH 4%): 100
% Protection, late blight in potato (Phytophthora infestans [4]; NH4OH 8% (= 2% aqueous NH3)): 0%
Diseased leaf area, late blight in potato (Phytophthora infestans [4]; NH4OH 8% (= 2% aqueous NH3), inoculated 2 days after spray): 100

c1c[nH]cn1 [Imidazole only, imidazole]
% diseased leaf area, late blight tomato, 5 d (Phytophthora infestans [1]; imidazole only 0.12% pH 9.55): 95%
% diseased leaf area, late blight tomato, 5 d (Phytophthora infestans [1]; imidazole only 0.25% pH 9.70): 88%
% diseased leaf area, late blight tomato, 5 d (Phytophthora infestans [1]; imidazole only 0.5% pH 9.86): 69%
% diseased leaf area, late blight tomato, 5 d (Phytophthora infestans [1]; imidazole only 1% pH 9.95): 50%
% diseased leaf area, late blight potato, 5 d (Phytophthora infestans [4]; imidazole only 0.12% pH 9.55): 50%
% diseased leaf area, late blight potato, 5 d (Phytophthora infestans [4]; imidazole only 0.25% pH 9.70): 50%
% diseased leaf area, late blight potato, 5 d (Phytophthora infestans [4]; imidazole only 0.5% pH 9.86): 25%
% diseased leaf area, late blight potato, 5 d (Phytophthora infestans [4]; imidazole only 1% pH 9.95): 18%
% diseased leaf area, powdery mildew wheat, 8 d ([3]; imidazole only 0.12% pH 9.55): 63%
% diseased leaf area, powdery mildew wheat, 8 d ([3]; imidazole only 0.25% pH 9.70): 50%
% diseased leaf area, powdery mildew wheat, 8 d ([3]; imidazole only 0.5% pH 9.86): 23%
% diseased leaf area, powdery mildew wheat, 8 d ([3]; imidazole only 1% pH 9.95): 25%
